Measurements: ChEMBL document CHEMBL1201862, “PubChem BioAssay data set” (2004)
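Compound exposure: 48 hours, 5 concentrations, 96-well plates. GI50 marks 50% less growth.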 The source made the active and inactive calls. Rule as the data show it: active = GI50 up to about 1.1 µM and inactive = higher.

Legend:
Assay in all cases: NCI anticancer screen, dose series, 48 h
[1] = system: 786-0
[2] = system: A549
[3] = system: CAKI-1
[4] = system: CCRF-CEM
[5] = system: DU-145
[6] = system: HT-29
[7] = system: Hs-578T
[8] = system: KM12
[9] = system: MOLT-4
[10] = system: NCI-H226
[11] = system: OVCAR-5
[12] = system: SF-539
[13] = system: SK-MEL-5
[14] = system: SK-OV-3
[15] = system: SNB-19
[16] = system: SNB-75
[17] = system: T47D
[18] = system: U-251
[19] = system: UACC-62
[20] = system: UO-31

Measured: GI50

CCCCCCCCCCCCCCCCCc1nc(Cl)nc(Cl)c1Cl
inactive: [1] > 100 µM | [2] > 100 µM | [3] > 100 µM | [4] 34.8 µM | [5] > 100 µM | [6] > 100 µM | [7] > 100 µM | [8] > 100 µM | [9] 76.7 µM | [10] 15.6 µM | [11] > 100 µM | [12] > 100 µM | [13] 17.3 µM | [14] > 100 µM | [15] > 100 µM | [16] > 100 µM | [17] > 100 µM | [18] > 100 µM | [19] > 100 µM | [20] > 100 µM

C/C=C/C[C@@H](C)C(=O)C1C(=O)N[C@@H](C(C)C)C(=O)N(C)CC(=O)N(C)[C@@H](CC(C)C)C(=O)N[C@@H](C(C)C)C(=O)N(C)[C@@H](CC(C)C)C(=O)N[C@@H](C)C(=O)N[C@@H](C)C(=O)N(C)[C@@H](CC(C)C)C(=O)N(C)[C@@H](CC(C)C)C(=O)N(C)[C@@H](C(C)C)C(=O)N1C (stereo not given in full)
inactive: [1] 7.76 µM | [2] 3.97 µM | [3] 12.8 µM | [4] 4.06 µM | [5] 4.06 µM | [6] 3.8 µM | [7] 6.21 µM | [8] 3.67 µM | [9] 2.35 µM | [10] 6.11 µM | [11] 7.87 µM | [12] 4.23 µM | [13] 2.99 µM | [14] > 20.5 µM | [15] 14 µM | [16] 4.98 µM | [17] 3.03 µM | [18] 5.94 µM | [19] 4.5 µM | [20] 3.78 µM
